Values quoted from earlier work as cited in patent US4127537A, “Novel tetracosapeptides, intermediates therefor and pharmaceutical compositions and methods employing said tetracosapeptides” (priority 1977, dated 1978).

Key:
rat = settings: injected directly into the brain of the rat; Belluzzi et al., Nature 260, 625 (1976)
[1] = test system: brain opiate receptor sites; settings: natural peptide; Bradbury et al., Nature 260, 793 (1976)

Q: What does the source list for “H-Tyr-Gly-Gly-Phe-Met-OH [methionine enkephalin]”?
A: analgesic activity (rat): weak analgesic agent of short duration; binding to partially purified brain opiate receptor sites [1]: binds stereo-specifically
